“And” between values parts separate entries of the source, which are not always exact repeats. Identical values can stand only once. Inconclusive results and toxic doses are left out. The calls were made as follows: active = survival T/C of 150% or more; inactive = T/C below 125% in these data.
Tested on: AKR/Lw mice, AKR lymphoma ip, median survival T/C
Assay: NCI In Vivo Anticancer Drug Screen. Data for tumor model Lymphoma AKR (Transplanted) (intraperitoneal) in AKR/Lw mice
Conditions: endpoint: median survival time, higher = longer survival
Procedure: The antitumor activity of compounds was measured in mice bearing transplantable tumors. Survival or tumor size were measured and the results are expressed as the measurement made in the treated group (T) divided by the measurement made in the vehicle treated control group (C). The tumor model used in this assay is Lymphoma AKR (Transplanted) (intraperitoneal) in AKR/Lw mice

[1] = dose: 25.0 mg/kg/injection, schedule: Q01DX001 (ip), vehicle: saline
[2] = dose: 50.0 mg/kg/injection, schedule: Q01DX001 (ip), vehicle: saline
[3] = dose: 100.0 mg/kg/injection, schedule: Q01DX001 (ip), vehicle: Klucel (hydroxypropylcellulose) (HPC)
[4] = dose: 100.0 mg/kg/injection, schedule: Q01DX001 (ip), vehicle: saline
[5] = dose: 100.0 mg/kg/injection, schedule: Q04DX003 (ip), vehicle: other
[6] = dose: 200.0 mg/kg/injection, schedule: Q01DX001 (ip), vehicle: Klucel (hydroxypropylcellulose) (HPC)
[7] = dose: 200.0 mg/kg/injection, schedule: Q01DX001 (ip), vehicle: saline
[8] = dose: 200.0 mg/kg/injection, schedule: Q04DX003 (ip), vehicle: Klucel (hydroxypropylcellulose) (HPC)
[9] = dose: 200.0 mg/kg/injection, schedule: Q04DX003 (ip), vehicle: saline
[10] = dose: 400.0 mg/kg/injection, schedule: Q01DX001 (ip), vehicle: Klucel (hydroxypropylcellulose) (HPC)

Measured: T/C

CC(=O)NNC(=O)c1ccccn1
inactive: dose: 3.1 mg/kg/injection, schedule: Q04DX003 (ip), vehicle: Klucel (hydroxypropylcellulose) (HPC) 92 % of control | dose: 6.2 mg/kg/injection, schedule: Q01DX009 (ip), vehicle: Klucel (hydroxypropylcellulose) (HPC) 100 % of control | dose: 6.2 mg/kg/injection, schedule: Q04DX003 (ip), vehicle: Klucel (hydroxypropylcellulose) (HPC) 88 % of control and 102 % of control | dose: 12.5 mg/kg/injection, schedule: Q01DX009 (ip), vehicle: Klucel (hydroxypropylcellulose) (HPC) 112 % of control and 120 % of control | dose: 12.5 mg/kg/injection, schedule: Q04DX003 (ip), vehicle: Klucel (hydroxypropylcellulose) (HPC) 89 % of control and 96 % of control | [1] 97 % of control and 108 % of control | dose: 25.0 mg/kg/injection, schedule: Q01DX009 (ip), vehicle: Klucel (hydroxypropylcellulose) (HPC) 109 % of control and 114 % of control | dose: 25.0 mg/kg/injection, schedule: Q01DX009 (ip), vehicle: saline 87 % of control and 91 % of control | dose: 25.0 mg/kg/injection, schedule: Q04DX003 (ip), vehicle: Klucel (hydroxypropylcellulose) (HPC) 97 % of control and 105 % of control and 112 % of control | dose: 31.25 mg/kg/injection, schedule: Q01DX001 (ip), vehicle: Klucel (hydroxypropylcellulose) (HPC) 94 % of control | dose: 37.5 mg/kg/injection, schedule: Q01DX009 (ip), vehicle: saline 98 % of control | dose: 50.0 mg/kg/injection, schedule: Q01DX001 (ip), vehicle: Klucel (hydroxypropylcellulose) (HPC) 92 % of control | [2] 95 % of control and 107 % of control | dose: 50.0 mg/kg/injection, schedule: Q01DX009 (ip), vehicle: Klucel (hydroxypropylcellulose) (HPC) 120 % of control | dose: 50.0 mg/kg/injection, schedule: Q01DX009 (ip), vehicle: saline 101 % of control and 104 % of control | dose: 50.0 mg/kg/injection, schedule: Q04DX003 (ip), vehicle: Klucel (hydroxypropylcellulose) (HPC) 104 % of control and 109 % of control and 110 % of control | dose: 62.5 mg/kg/injection, schedule: Q01DX001 (ip), vehicle: Klucel (hydroxypropylcellulose) (HPC) 94 % of control | dose: 75.0 mg/kg/injection, schedule: Q01DX009 (ip), vehicle: saline 96 % of control | [3] 114 % of control | [4] 102 % of control and 115 % of control and 116 % of control | dose: 100.0 mg/kg/injection, schedule: Q01DX009 (ip), vehicle: Klucel (hydroxypropylcellulose) (HPC) 123 % of control | dose: 100.0 mg/kg/injection, schedule: Q01DX009 (ip), vehicle: saline 107 % of control | [5] 117 % of control and 123 % of control | dose: 100.0 mg/kg/injection, schedule: Q04DX003 (ip), vehicle: saline 116 % of control | dose: 150.0 mg/kg/injection, schedule: Q01DX001 (ip), vehicle: Klucel (hydroxypropylcellulose) (HPC) 94 % of control | dose: 150.0 mg/kg/injection, schedule: Q01DX009 (ip), vehicle: saline 105 % of control | [6] 95 % of control | [7] 97 % of control and 107 % of control | [8] 87 % of control and 94 % of control | dose: 200.0 mg/kg/injection, schedule: Q04DX003 (ip), vehicle: other 107 % of control | [9] 116 % of control | dose: 250.0 mg/kg/injection, schedule: Q01DX001 (ip), vehicle: Klucel (hydroxypropylcellulose) (HPC) 107 % of control | [10] 100 % of control

C1CC2CCC[N+]3=C2C(C1)CCC3 (stereo not drawn)
inactive: dose: 12.5 mg/kg/injection, schedule: Q01DX001 (ip), vehicle: saline 100 % of control | [1] 100 % of control | [2] 108 % of control

O=C(Cc1ccc2cc3c(cc2c1)OCO3)NCCc1ccc2c(c1)OCO2
inactive: [3] 92 % of control | dose: 100.0 mg/kg/injection, schedule: Q04DX003 (ip), vehicle: Klucel (hydroxypropylcellulose) (HPC) 100 % of control | [6] 94 % of control | [8] 96 % of control | [10] 100 % of control | dose: 400.0 mg/kg/injection, schedule: Q04DX003 (ip), vehicle: Klucel (hydroxypropylcellulose) (HPC) 92 % of control

Nc1nc(=S)c2ncn(C3CC(O)C(CO)O3)c2[nH]1 (stereo not drawn)
inactive: dose: 12.5 mg/kg/injection, schedule: Q01DX009 (ip), vehicle: saline 93 % of control | dose: 25.0 mg/kg/injection, schedule: Q04DX003 (ip), vehicle: saline 108 % of control | dose: 50.0 mg/kg/injection, schedule: Q04DX003 (ip), vehicle: saline 102 % of control and 119 % of control | [4] 100 % of control | [5] 98 % of control and 123 % of control | [7] 102 % of control | dose: 200.0 mg/kg/injection, schedule: Q01DX009 (ip), vehicle: saline 86 % of control and 105 % of control and 116 % of control | [9] 108 % of control and 112 % of control and 116 % of control | dose: 300.0 mg/kg/injection, schedule: Q04DX003 (ip), vehicle: saline 119 % of control | dose: 400.0 mg/kg/injection, schedule: Q01DX009 (ip), vehicle: saline 103 % of control and 110 % of control | dose: 400.0 mg/kg/injection, schedule: Q04DX003 (ip), vehicle: other 113 % of control | dose: 400.0 mg/kg/injection, schedule: Q04DX003 (ip), vehicle: saline 116 % of control and 122 % of control | dose: 500.0 mg/kg/injection, schedule: Q01DX001 (ip), vehicle: saline 105 % of control and 107 % of control and 121 % of control | dose: 500.0 mg/kg/injection, schedule: Q04DX003 (ip), vehicle: saline 103 % of control | dose: 600.0 mg/kg/injection, schedule: Q01DX001 (ip), vehicle: saline 102 % of control and 111 % of control and 119 % of control | dose: 600.0 mg/kg/injection, schedule: Q04DX003 (ip), vehicle: saline 93 % of control and 100 % of control

CN(C)C(=O)c1cccc(COc2ccc(N3C(N)=NC(N)=NC3(C)C)cc2Cl)c1
inactive: dose: 0.25 mg/kg/injection, schedule: Q04DX003 (ip), vehicle: saline 105 % of control | dose: 0.5 mg/kg/injection, schedule: Q04DX003 (ip), vehicle: saline 108 % of control | dose: 1.0 mg/kg/injection, schedule: Q04DX003 (ip), vehicle: saline 97 % of control | dose: 1.2 mg/kg/injection, schedule: Q01DX009 (ip), vehicle: saline 100 % of control | dose: 1.25 mg/kg/injection, schedule: Q01DX009 (ip), vehicle: saline 106 % of control | dose: 2.0 mg/kg/injection, schedule: Q04DX003 (ip), vehicle: saline 114 % of control | dose: 3.1 mg/kg/injection, schedule: Q01DX009 (ip), vehicle: saline 100 % of control | dose: 4.0 mg/kg/injection, schedule: Q04DX003 (ip), vehicle: saline 114 % of control | dose: 6.2 mg/kg/injection, schedule: Q01DX009 (ip), vehicle: saline 94 % of control and 97 % of control and 108 % of control | dose: 8.0 mg/kg/injection, schedule: Q04DX003 (ip), vehicle: water 100 % of control | dose: 10.0 mg/kg/injection, schedule: Q04DX003 (ip), vehicle: saline 105 % of control | dose: 12.0 mg/kg/injection, schedule: Q01DX001 (ip), vehicle: saline 112 % of control | dose: 15.0 mg/kg/injection, schedule: Q01DX009 (ip), vehicle: saline 112 % of control | dose: 16.0 mg/kg/injection, schedule: Q04DX003 (ip), vehicle: water 109 % of control | dose: 18.0 mg/kg/injection, schedule: Q04DX003 (ip), vehicle: saline 109 % of control | [1] 112 % of control | dose: 32.0 mg/kg/injection, schedule: Q04DX003 (ip), vehicle: water 120 % of control | dose: 35.0 mg/kg/injection, schedule: Q04DX003 (ip), vehicle: saline 116 % of control and 120 % of control | dose: 37.5 mg/kg/injection, schedule: Q04DX003 (ip), vehicle: saline 116 % of control | dose: 64.0 mg/kg/injection, schedule: Q04DX003 (ip), vehicle: water 105 % of control
